From article PMC7689250, “Synthetic Peptide Libraries Designed From a Minimal Alpha-Helical Domain of AS-48-Bacteriocin Homologs Exhibit Potent Antibacterial Activity” (Frontiers in Microbiology, 2020)
Residues, ends and D or L forms follow the SMILES beside them.

Experiments:
S. aureus (USA300) = type: cell-based, Staphylococcus aureus; details: for MBC: USA300; for MIC: USA300, 16 h
How it was run: (§1)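 MIC in Mueller-Hinton broth with 1 × 10^6 CFU/mL bacteria, overnight cultures grown first in LB (E. coli, P. aeruginosa, S. aureus) or Todd-Hewitt (S. pyogenes); growth read as OD 600. Library members screened at half the parent peptide MIC; MBC as lowest concentration giving no colonies after plating MIC wells, 37°C overnight.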

S. pyogenes (M1) = type: cell-based, Streptococcus pyogenes; details: for MBC: M1; for MIC: M1, 16 h
How it was run: as §1

P. aeruginosa (PAO1) = type: cell-based, Pseudomonas aeruginosa; details: for MBC: PAO1; for MIC: PAO1, 16 h
How it was run: as §1

E. coli (BL21) = type: cell-based, Escherichia coli; details: for MBC: BL21; for MIC: BL21, 16 h
How it was run: as §1

sheep erythrocytes = type: cell-based; details: red cells of sheep, 1 h
How it was run: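 Washed defibrinated sheep blood, diluted 1:25 in PBS, incubated 1 h at 37 °C with peptide at the MIC-assay concentrations (sample:blood 1:10). Haemoglobin release read as supernatant absorbance at 450 nm; percent haemolysis normalised to PBS and 10% Triton controls.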

| SMILES | MBC (S. aureus (USA300)) | MIC (S. aureus (USA300)) | MBC (S. pyogenes (M1)) | MIC (S. pyogenes (M1)) | MBC (P. aeruginosa (PAO1)) | MIC (P. aeruginosa (PAO1)) | MBC (E. coli (BL21)) | MIC (E. coli (BL21)) | Percent Hemolysis (sheep erythrocytes) |
| --- | --- | --- | --- | --- | --- | --- | --- | --- | --- |
| CC[C@H](C)[C@H](NC(=O)[C@H](Cc1ccccc1)NC(=O)[C@H](C)NC(=O)[C@H](CCCCN)NC(=O)[C@H](CCCCN)NC(=O)CNC(=O)[C@H](CCCNC(=N)N)NC(=O)[C@H](CCCCN)NC(=O)[C@H](CCCNC(=N)N)NC(=O)[C@H](CC(C)C)NC(=O)[C@H](CCC(=O)O)NC(=O)[C@H](CCC(=O)O)NC(=O)[C@H](CC(C)C)NC(=O)[C@H](CC(C)C)NC(=O)[C@H](Cc1ccc(O)cc1)NC(=O)[C@H](CCCCN)NC(=O)[C@@H](NC(=O)[C@H](CC(C)C)NC(=O)[C@H](C)NC(=O)[C@H](CCC(N)=O)NC(=O)[C@H](CCCNC(=N)N)NC(=O)CNC(=O)[C@H](C)N)[C@@H](C)O)C(=O)N[C@@H](Cc1c[nH]c2ccccc12)C(=O)N[C@@H](Cc1c[nH]c2ccccc12)C(=O)O [Syn-xiamencin-60] (H-AGRQALTKYLLEELRKRGKKAFIWW-OH; N-terminus and C-terminus assumed) | >128 µM | >128 µM | 4 µM | 2 µM | >128 µM | >128 µM | 8 µM | 4 µM | 10.9% |
| CC[C@H](C)[C@H](NC(=O)[C@H](Cc1ccccc1)NC(=O)[C@H](C)NC(=O)[C@H](CCCCN)NC(=O)[C@H](CCCCN)NC(=O)CNC(=O)[C@H](CCCNC(=N)N)NC(=O)[C@H](CCCCN)NC(=O)[C@H](CCCNC(=N)N)NC(=O)[C@H](CC(C)C)NC(=O)[C@H](Cc1ccc(O)cc1)NC(=O)[C@H](CCC(=O)O)NC(=O)[C@H](CCCCN)NC(=O)[C@H](CC(C)C)NC(=O)[C@H](CCC(=O)O)NC(=O)[C@H](CC(C)C)NC(=O)[C@@H](NC(=O)[C@H](CC(C)C)NC(=O)[C@H](CCCCN)NC(=O)[C@H](CCC(N)=O)NC(=O)[C@H](CCCNC(=N)N)NC(=O)CNC(=O)[C@H](C)N)[C@@H](C)O)C(=O)N[C@@H](C)C(=O)N[C@@H](Cc1c[nH]c2ccccc12)C(=O)O [Syn-xiamencin-83] (H-AGRQKLTLELKEYLRKRGKKAFIAW-OH; N-terminus and C-terminus assumed) | >128 µM | >128 µM | 4 µM | 4 µM | >128 µM | 128 µM | 32 µM | 16 µM | 10.7% |
| CC[C@H](C)[C@H](NC(=O)[C@H](Cc1ccccc1)NC(=O)[C@H](C)NC(=O)[C@H](CCCCN)NC(=O)[C@H](CCCCN)NC(=O)CNC(=O)[C@H](CCCNC(=N)N)NC(=O)[C@H](CCCCN)NC(=O)[C@H](CCCNC(=N)N)NC(=O)[C@H](CC(C)C)NC(=O)[C@H](CCC(=O)O)NC(=O)[C@H](CCC(=O)O)NC(=O)[C@H](CC(C)C)NC(=O)[C@H](CC(C)C)NC(=O)[C@H](Cc1ccc(O)cc1)NC(=O)[C@H](CCCCN)NC(=O)[C@@H](NC(=O)[C@H](CC(C)C)NC(=O)[C@H](C)NC(=O)[C@H](CCC(N)=O)NC(=O)[C@H](CCCNC(=N)N)NC(=O)[C@H](CCCCN)NC(=O)[C@H](C)N)[C@@H](C)O)C(=O)N[C@@H](C)C(=O)N[C@@H](Cc1c[nH]c2ccccc12)C(=O)O [Syn-xiamencin-92] (H-AKRQALTKYLLEELRKRGKKAFIAW-OH; N-terminus and C-terminus assumed) | 8 µM | 8 µM | 8 µM | 4 µM | 16 µM | 16 µM | 8 µM | 4 µM | 18.8% |
